Earlier results in US8415273B2, “Broadleaf perennial weed control agent for grass, and method for controlling broadleaf perennial weeds in grass” (Nippon Soda Co., Ltd., priority 2007, dated 2013).

Tests used:
[1] = system: turf grasses such as Zoysia japonica and Zoysia tenuifolia; settings: soil-based herbicide
[2] = system: broadleaf annual weeds such as chickweed and gramineous weeds such as crabgrass

NC(=O)c1nc(-c2ccccc2)n(-c2ccc(Cl)c(COCC(F)(F)C(F)(F)F)c2)n1 [flupoxam, 1-[4-chloro-3-[(2,2,3,3,3-pentafluoropropoxy)methyl]phenyl]-5-phenyl-1H-1,2,4-triazole-3-carboxamide]
Detrimental effects on turf grasses [1]: no detrimental effects
Control action on annual weeds in grass [2]: powerful control action
